Data published in ChEMBL document CHEMBL1201862, “PubChem BioAssay data set” (2004).
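96-well plates; 48 h exposure; 5 concentrations. Endpoints by linear interpolation between flanking doses. Not reached: highest tested concentration assigned. The concentration for 50% growth inhibition is given as GI50.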 Activity calls are given as the source filed them. No stated cut-off is given here; in the data, active = GI50 up to about 1.1 µM and inactive = higher.

How the values were obtained:
Test in all cases: DTP human tumour cell line panel, 48 h
A549 = test system: A549
CAKI-1 = test system: CAKI-1
EKVX = test system: EKVX
HL-60 = test system: HL-60
MCF7 = test system: MCF7
NCI-H460 = test system: NCI-H460
OVCAR-3 = test system: OVCAR-3
OVCAR-5 = test system: OVCAR-5
RXF 393 = test system: RXF 393
SF-295 = test system: SF-295
SK-MEL-28 = test system: SK-MEL-28
SK-OV-3 = test system: SK-OV-3
SN12C = test system: SN12C
SNB-19 = test system: SNB-19
TK-10 = test system: TK-10
U-251 = test system: U-251
UO-31 = test system: UO-31
COLO 205 = test system: COLO 205
LOX IMVI = test system: LOX IMVI
SK-MEL-5 = test system: SK-MEL-5

Row | SMILES | GI50 (A549) | GI50 (CAKI-1) | GI50 (EKVX) | GI50 (HL-60) | GI50 (MCF7) | GI50 (NCI-H460) | GI50 (OVCAR-3) | GI50 (OVCAR-5) | GI50 (RXF 393) | GI50 (SF-295) | GI50 (SK-MEL-28) | GI50 (SK-OV-3) | GI50 (SN12C) | GI50 (SNB-19) | GI50 (TK-10) | GI50 (U-251) | GI50 (UO-31) | GI50 (COLO 205) | GI50 (LOX IMVI) | GI50 (SK-MEL-5)
1 | CN(C)CCCn1c(-c2ccc(Br)cc2)cs/c1=N\c1ccccc1 | 17.5 µM (inactive) | 10.2 µM (inactive) | 10.8 µM (inactive) | 1.4 µM (inactive) | 16 µM (inactive) | 12.2 µM (inactive) | 10.6 µM (inactive) | 16.5 µM (inactive) | 12.9 µM (inactive) | 11.2 µM (inactive) | 18.5 µM (inactive) | 18.3 µM (inactive) | 18.5 µM (inactive) | 14.5 µM (inactive) | 15.9 µM (inactive) | 49.2 µM (inactive) | 10.4 µM (inactive) |  |  | 
2 | Cc1cc(S(=O)(=O)NC2=NCc3nc4ccccc4n32)c(S)cc1Cl | 25.8 µM (inactive) | 35.2 µM (inactive) | 29.3 µM (inactive) | 24.2 µM (inactive) | 30.3 µM (inactive) | 27.7 µM (inactive) | 19.9 µM (inactive) | 20.7 µM (inactive) | 12.9 µM (inactive) | 19.9 µM (inactive) | 30.5 µM (inactive) |  | 23.5 µM (inactive) | 32.3 µM (inactive) | 38.8 µM (inactive) | 33.5 µM (inactive) | 26.4 µM (inactive) | 19.4 µM (inactive) | 18.4 µM (inactive) | 16.9 µM (inactive)
3 | CCOC(=O)c1csc(NC(=O)CN2CCCC2)n1 | > 100 µM (inactive) | > 100 µM (inactive) | > 100 µM (inactive) | > 100 µM (inactive) | > 100 µM (inactive) | > 100 µM (inactive) | > 100 µM (inactive) | > 100 µM (inactive) | > 100 µM (inactive) | > 100 µM (inactive) | > 100 µM (inactive) | > 100 µM (inactive) |  | > 100 µM (inactive) | > 100 µM (inactive) | > 100 µM (inactive) | > 100 µM (inactive) | > 100 µM (inactive) | > 100 µM (inactive) | > 100 µM (inactive)
4 | O=C1c2cc3c(cc2CC12Cc1ccc4c(c1C2=O)CCC4)CCCC3 (configuration not stated) | > 100 µM (inactive) | > 100 µM (inactive) | > 100 µM (inactive) | > 100 µM (inactive) | > 100 µM (inactive) | > 100 µM (inactive) | > 100 µM (inactive) | > 100 µM (inactive) | > 100 µM (inactive) | > 100 µM (inactive) | > 100 µM (inactive) | > 100 µM (inactive) |  | > 100 µM (inactive) | > 100 µM (inactive) | > 100 µM (inactive) | > 100 µM (inactive) |  | > 100 µM (inactive) | > 100 µM (inactive)
5 | COC(=O)C(NC(=O)OC(C)(C)C)P(=O)(OC)OC (configuration not stated) | > 100 µM (inactive) | > 100 µM (inactive) | > 100 µM (inactive) | > 100 µM (inactive) | > 100 µM (inactive) |  | > 100 µM (inactive) | > 100 µM (inactive) | > 100 µM (inactive) | > 100 µM (inactive) | > 100 µM (inactive) | > 100 µM (inactive) | > 100 µM (inactive) | > 100 µM (inactive) | > 100 µM (inactive) | > 100 µM (inactive) | > 100 µM (inactive) | > 100 µM (inactive) | > 100 µM (inactive) | > 100 µM (inactive)
6 | CCOC(=O)c1csc(NC(=O)CCN2CCN(C)CC2)n1 | > 100 µM (inactive) | 64.1 µM (inactive) |  | 75.5 µM (inactive) | 89.3 µM (inactive) | > 100 µM (inactive) | > 100 µM (inactive) | > 100 µM (inactive) | > 100 µM (inactive) | > 100 µM (inactive) | > 100 µM (inactive) | > 100 µM (inactive) |  | > 100 µM (inactive) | > 100 µM (inactive) | > 100 µM (inactive) | > 100 µM (inactive) | > 100 µM (inactive) | > 100 µM (inactive) | > 100 µM (inactive)
7 | Nc1ccc2c(c1)C1=NNC(=O)CC1C2 (configuration not stated) | > 100 µM (inactive) | > 100 µM (inactive) | > 100 µM (inactive) | > 100 µM (inactive) | > 31.6 µM (inactive) | > 100 µM (inactive) | > 31.6 µM (inactive) | > 92.5 µM (inactive) | > 100 µM (inactive) | > 100 µM (inactive) | > 100 µM (inactive) | > 100 µM (inactive) | > 100 µM (inactive) | > 100 µM (inactive) |  | > 100 µM (inactive) | > 100 µM (inactive) | > 100 µM (inactive) | > 100 µM (inactive) | > 100 µM (inactive)
8 | c1ccc2c(c1)c1c(n2CCOCCCN2CCCCC2)CCCC1 | 18.4 µM (inactive) | 18 µM (inactive) | 17.1 µM (inactive) | 10.1 µM (inactive) | 16.1 µM (inactive) | 13.9 µM (inactive) | 13.2 µM (inactive) | 13.1 µM (inactive) | 11.4 µM (inactive) |  | 20.1 µM (inactive) |  | 13.6 µM (inactive) | 27.5 µM (inactive) | 16.4 µM (inactive) | 16 µM (inactive) | 12.6 µM (inactive) | 20.4 µM (inactive) |  | 20.6 µM (inactive)
9 | N#C[C@H](c1ccccn1)c1nc2ccccc2nc1Cl | > 100 µM (inactive) | > 100 µM (inactive) | > 100 µM (inactive) | 74.6 µM (inactive) | > 100 µM (inactive) | > 100 µM (inactive) | > 100 µM (inactive) | > 100 µM (inactive) | > 100 µM (inactive) | > 100 µM (inactive) | > 100 µM (inactive) | > 100 µM (inactive) | > 100 µM (inactive) | > 100 µM (inactive) |  | > 100 µM (inactive) | > 100 µM (inactive) | > 100 µM (inactive) |  | > 100 µM (inactive)
10 | COc1ccc(C2C3CCc4ccccc4C3=NN2S(=O)(=O)c2cccc(C(=O)O)c2OC)cc1 (configuration not stated) | 10.1 µM (inactive) | 22.5 µM (inactive) | 15 µM (inactive) | 7.53 µM (inactive) | 2.19 µM (inactive) | 5.66 µM (inactive) | 5.35 µM (inactive) | 92.9 µM (inactive) | 13.1 µM (inactive) | 9.23 µM (inactive) |  | 1.8 µM (inactive) | 27.3 µM (inactive) | 25.4 µM (inactive) | 22.9 µM (inactive) | 7.21 µM (inactive) | 19.4 µM (inactive) | 1.84 µM (inactive) | 12.7 µM (inactive) | 6.62 µM (inactive)
11 | CN(C)c1cccc2c1C(=O)C=CC21CCc2ccc(N(C)C)c3c(N(C)C)ccc1c23 (configuration not stated) | 18.1 µM (inactive) | 21.4 µM (inactive) | 20 µM (inactive) | 5.01 µM (inactive) | 11.7 µM (inactive) | 9.04 µM (inactive) | 8.34 µM (inactive) | 19.1 µM (inactive) | 7.38 µM (inactive) | 18.8 µM (inactive) | 15.4 µM (inactive) | 10.1 µM (inactive) | 12.2 µM (inactive) | 15.2 µM (inactive) | 14.6 µM (inactive) |  | 11.9 µM (inactive) | 15.1 µM (inactive) | 15.1 µM (inactive) | 16.3 µM (inactive)
12 | C[N+](C)(C)/C=N\c1cccc2c1CCCC2 | 72.9 µM (inactive) | > 100 µM (inactive) | > 100 µM (inactive) | 0.0885 µM (active) | > 100 µM (inactive) |  | > 100 µM (inactive) | > 100 µM (inactive) | > 100 µM (inactive) | > 100 µM (inactive) | > 100 µM (inactive) | > 100 µM (inactive) | > 100 µM (inactive) | > 100 µM (inactive) | > 100 µM (inactive) | 88.3 µM (inactive) | > 100 µM (inactive) | 43.4 µM (inactive) | 55.3 µM (inactive) | 41.2 µM (inactive)
13 | CC(C)N(C)C(=O)C12C3C4C1C1C2C3C41C#N (configuration not stated) | > 100 µM (inactive) | > 100 µM (inactive) | > 100 µM (inactive) | > 100 µM (inactive) | > 100 µM (inactive) | > 100 µM (inactive) | > 100 µM (inactive) | > 100 µM (inactive) | > 100 µM (inactive) | > 100 µM (inactive) | > 100 µM (inactive) |  | > 100 µM (inactive) | > 100 µM (inactive) | > 100 µM (inactive) | > 100 µM (inactive) | > 100 µM (inactive) | > 100 µM (inactive) | > 100 µM (inactive) | > 100 µM (inactive)
14 | C=C1CC(OC)(C(OC)C(=O)N[C@H]2OCO[C@H]3C2O[C@H](C[C@@H](COC)OC)C(C)(C)C3OC)O[C@H](C)[C@@H]1C (some centres not stated) | 0.693 µM (active) | 0.916 µM (active) |  | 0.412 µM (active) | 1.4 µM (inactive) | 0.746 µM (active) | 0.755 µM (active) | 1.42 µM (inactive) | 0.995 µM (active) | 0.851 µM (active) | 0.764 µM (active) | 1.06 µM (active) | 0.746 µM (active) | 0.611 µM (active) |  | 0.918 µM (active) | 0.759 µM (active) | 0.805 µM (active) | 0.617 µM (active) | 0.622 µM (active)
15 | CC(=O)O[C@H]1CC[C@@]2(C)[C@H](CC[C@@H]3[C@@H]2CC[C@]2(C)[C@@H](c4ccc(=O)oc4)C[C@H]4O[C@]342)C1 | 0.213 µM (active) | 0.397 µM (active) | 0.646 µM (active) | 0.307 µM (active) | 1.27 µM (inactive) | 0.212 µM (active) | 0.338 µM (active) | 4.8 µM (inactive) | 0.147 µM (active) | 0.515 µM (active) | 2.2 µM (inactive) | 1.83 µM (inactive) | 0.327 µM (active) | 1.82 µM (inactive) |  | 1.02 µM (active) | 0.791 µM (active) | 3.15 µM (inactive) | 0.904 µM (active) | 0.34 µM (active)
